Common to all, as to type: cell-based
The test system of one experiment is LS411N cells. The experiment can be described thus: DHX9 cellular proliferation assay (CellTiter-Glo), LS411N (CRC-MSI). Particulars: Homo sapiens, LS-411N, read-out: LS411N (CRC-MSI-H) Antiproliferative IC50.
The test system of the next experiment is NCI-H747 cells. The experiment can be described thus: DHX9 cellular proliferation assay (CellTiter-Glo), NCI-H747 (CRC-MSS). The conditions noted are these: Homo sapiens. A general note: Cellular ATP, detected with luciferase, serves as a proxy for viable cell number.
Experiment [1] deals with circBRIP1 in HCT116 cells. The experiment can be described thus: DHX9 circBRIP1 cellular target engagement SYBR Green assay (qPCR). Particulars: Homo sapiens, HCT-116, circBRIP1, HCT116 cells; SyBr assay (marked ^+); read-out: DHX9 Cellular Target Engagement EC50. (In general: In qPCR the cycle at which signal appears reflects the starting amount.)
For experiment [2], the system named is circBRIP1 in HCT116 cells. The experiment can be described thus: DHX9 circBRIP1 cellular target engagement TaqMan Multiplex assay (qPCR). The conditions noted are these: Homo sapiens, HCT-116, circBRIP1, HCT116 cells; * Taqman assay was used; read-out: DHX9 Cellular Target Engagement EC50.
[3] abbreviates: NCI-H747, NCI-H747, performed at Pharmaron, read-out: H747 (CRC-MSS) Antiproliferative IC50.
[4] abbreviates: LS411N, CRC-MSI-H, performed at Pharmaron.
Where [5] appears, read: NCI-H747, NCI-H747, CRC-MSS, performed at Pharmaron, read-out: H747 (CRC-MSS) Antiproliferative IC50.
Where [6] appears, read: NCI-H747, read-out: H747 (CRC-MSS) Antiproliferative IC50.

For orientation: IC50 means the concentration needed to halve the response being measured. As a reminder, the EC50 is the concentration at which the effect is half-maximal.

The structures appear in SMILES notation. Where two headings read alike, the source gives them in different places.

Take `CC(Oc1cccnc1-c1cc(C(=O)Nc2cc(Cl)cc(NS(C)(=O)=O)c2)cn1C)c1cc(F)cc(C(F)(F)F)c1` (single isomer, unassigned) [Example 629, N-(3-chloro-5-methanesulfonamidophenyl)-5-{3-[1-[3-fluoro-5-(trifluoromethyl)phenyl]ethoxy]pyridin-2-yl}-1-methyl-1H-pyrrole-3-carboxamide]: the IC50 in the experiment on LS411N cells (LS411N, performed at Pharmaron) is 69.2 nM; in the experiment on NCI-H747 cells (setting [3]), above 10000 nM.
Consider `CS(=O)(=O)Nc1cc(Br)cc(NC(=O)c2cc(-c3cnccn3)cs2)c1` [Example 18], for which the IC50 in the experiment on LS411N cells (setting [4]) was 546 nM; in the experiment with NCI-H747 cells (setting [5]), above 10000 nM. Further, in experiment [1], the EC50 came out at 98.4 nM.
With `Cc1cccc(O)c1-c1csc(C(=O)Nc2cc(Br)cc(NS(C)(=O)=O)c2)c1` [Example 19], the IC50 is 1080 nM with LS411N cells (setting [4]) and above 10000 nM with NCI-H747 cells (setting [5]). Moreover, the 50% effective concentration (EC50) in experiment [1] worked out at 2110 nM.
In the same order, the values of `Cc1sc(C(=O)Nc2cc(Br)cc(NS(C)(=O)=O)c2)cc1-c1ccccc1O` [Example 20] are 609 nM, 7220 nM and 100 nM.
In the same order, the values of `CS(=O)(=O)Nc1cc(Br)cc(NC(=O)c2cc(-c3ccccc3O)cs2)c1` [Example 21] are 791 nM, above 10000 nM and 260 nM.
With `Cc1sc(C(=O)Nc2cc(Cl)cc(NS(C)(=O)=O)c2)cc1-c1ncccn1` [Example 22], the IC50 in the experiment on LS411N cells (setting [4]) was 115 nM; with NCI-H747 cells (setting [5]), above 10000 nM. For the same molecule, the EC50 in experiment [1] amounted to 35.8 nM.
Take `Cc1sc(C(=O)Nc2cc(Br)cc(NS(C)(=O)=O)c2)cc1-c1ccccn1` [Example 23]: the IC50 in the experiment on LS411N cells (setting [4]) is 53.1 nM; with NCI-H747 cells (setting [5]) it was above 10000 nM. In addition, the EC50 in experiment [1] worked out at 54.2 nM.
Regarding `CS(=O)(=O)Nc1cc(Br)cc(NC(=O)c2cc(-c3ncccn3)cs2)c1` [Example 25], the half-maximal inhibitory concentration (IC50) in the experiment with LS411N cells (setting [4]) was 99.1 nM; in the experiment with NCI-H747 cells (setting [5]), above 10000 nM. Also, the 50% effective concentration (EC50) in experiment [1] was found to be 48 nM.
With `CS(=O)(=O)Nc1cc(Cl)cc(NC(=O)c2cc(-c3ncccn3)cs2)c1` [Example 26], the IC50 in the experiment on LS411N cells (setting [4]) is 217 nM; with NCI-H747 cells (setting [5]) it was above 10000 nM. For the same molecule, the concentration for a half-maximal effect (EC50) in experiment [1] was 60.9 nM.
In the same order, the values of `CCS(=O)(=O)Nc1cc(Cl)cc(NC(=O)c2cc(-c3ncccn3)c(C)s2)c1` [Example 27] are 117 nM, above 10000 nM and 49.7 nM.
As to `CCS(=O)(=O)Nc1cc(Cl)cc(NC(=O)c2cc(-c3ccccn3)c(C)s2)c1` [Example 28], the half-maximal inhibitory concentration (IC50) is 78.8 nM in the experiment with LS411N cells (setting [4]) and above 10000 nM in the experiment on NCI-H747 cells (setting [5]). Also, in experiment [1], the half-maximal effective concentration (EC50) is 25.8 nM.
The matching figures for `CS(=O)(=O)Nc1cc(Cl)cc(NC(=O)c2cc(-c3ncccc3OCc3ccccc3)cs2)c1` [Example 29]: 124 nM, 9280 nM and 51.9 nM.
The matching figures for `CS(=O)(=O)Nc1cc(Br)cc(NC(=O)c2cc(-c3ncccc3OCc3ccccc3)cs2)c1` [Example 32]: 101 nM, above 10000 nM and 48.2 nM.
Regarding `Cc1cccnc1-c1csc(C(=O)Nc2cc(Br)cc(NS(C)(=O)=O)c2)c1` [Example 33], the IC50 was 116 nM with LS411N cells (setting [4]) and above 10000 nM with NCI-H747 cells (setting [5]). The EC50 in experiment [1] came out at 21.5 nM.
The matching figures for `Cc1sc(C(=O)Nc2cc(Cl)cc(NS(C)(=O)=O)c2)cc1-c1ncccc1OCc1ccccc1` [Example 34]: 14.1 nM, 8670 nM and 13 nM.
The matching figures for `Cc1sc(C(=O)Nc2cc(Cl)cc(NS(C)(=O)=O)c2)cc1-c1ccc(F)cn1` [Example 35]: 76.8 nM, above 10000 nM and 37.2 nM.
Consider `CS(=O)(=O)Nc1cc(Br)cc(NC(=O)c2cnn(-c3ccccn3)c2)c1` [Example 36, N-(3-bromo-5-(methylsulfonamido)phenyl)-1-(pyridin-2-yl)-1H-pyrazole-4-carboxamide], for which the concentration for half-maximal inhibition (IC50) in the experiment on LS411N cells is 1080 nM; with NCI-H747 cells (setting [6]), above 10000 nM. Besides, the EC50 in experiment [1] is 313 nM.
`CS(=O)(=O)Nc1cc(Cl)cc(NC(=O)c2cnn(-c3ccccn3)c2)c1` [Example 37]: the results for the IC50 with LS411N cells (setting [4]) and in the experiment with NCI-H747 cells (setting [5]) were 3470 nM and above 10000 nM, respectively. Further, the EC50 in experiment [1] stood at 830 nM.
Consider `Cc1ccc(-n2cc(C(=O)Nc3cc(Br)cc(NS(C)(=O)=O)c3)cn2)nc1` [Example 42], for which the half-maximal inhibitory concentration (IC50) in the experiment with LS411N cells (setting [4]) is 917 nM; in the experiment on NCI-H747 cells (setting [5]) it was above 10000 nM. Moreover, in experiment [1], the EC50 was determined as 308 nM.
The matching figures for `Cc1cccnc1-n1cc(C(=O)Nc2cc(Br)cc(NS(C)(=O)=O)c2)cn1` [Example 49]: 901 nM, above 10000 nM and 434 nM.
With `CS(=O)(=O)Nc1cc(Br)cc(NC(=O)c2cnn(-c3ccccc3OCc3ccccc3)c2)c1` [Example 51], the IC50 in the experiment with LS411N cells (setting [4]) came out at 259 nM; with NCI-H747 cells (setting [5]), 6470 nM. The EC50 in experiment [1] amounted to 188 nM.
In the same order, the values of `CS(=O)(=O)Nc1cc(Br)cc(NC(=O)c2cnn(-c3ccc(N4CCOCC4)cn3)c2)c1` [Example 55] are 1060 nM, above 10000 nM and 143 nM.
In the same order, the values of `Cc1cc(C(=O)Nc2cc(Cl)cc(NS(C)(=O)=O)c2)cn1-c1ncccn1` [Example 59] are 357 nM, above 10000 nM and 104 nM.
Consider `CS(=O)(=O)Nc1cc(Cl)cc(NC(=O)c2cnn(-c3ncccc3OCc3cccc(F)c3)c2)c1` [Example 65], for which the IC50 in the experiment on LS411N cells (setting [4]) was 109 nM; in the experiment on NCI-H747 cells (setting [5]), above 10000 nM. Moreover, the 50% effective concentration (EC50) in experiment [1] worked out at 63.1 nM.
The matching figures for `CS(=O)(=O)Nc1cc(Br)cc(NC(=O)c2cnn(-c3cc(C#N)ccc3OCc3ccccc3)c2)c1` [Example 67]: 1050 nM, above 10000 nM and 297 nM.
Take `CS(=O)(=O)Nc1cc(Cl)cc(NC(=O)c2cnn(-c3ncccc3OCc3cccc(Cl)c3)c2)c1` [Example 70]: the 50% inhibitory concentration (IC50) with LS411N cells (setting [4]) was 375 nM; in the experiment with NCI-H747 cells (setting [5]), above 10000 nM. Besides, the EC50 in experiment [1] worked out at 107 nM.
In the same order, the values of `Cc1cccnc1-c1cc(C(=O)Nc2cc(Cl)cc(NS(C)(=O)=O)c2)cn1C` [Example 81] are 1070 nM, above 10000 nM and 290 nM.
Turning to `Cn1cc(C(=O)Nc2cc(Cl)cc(NS(C)(=O)=O)c2)cc1-c1ncccn1` [Example 82], the IC50 in the experiment on LS411N cells (setting [4]) was 134 nM; in the experiment with NCI-H747 cells (setting [5]) it was above 10000 nM. Further, in experiment [1], the concentration giving a half-maximal response (EC50) turned out to be 73.2 nM.
With `Cc1cccnc1-c1cc(C(=O)Nc2cc(Br)cc(NS(C)(=O)=O)c2)cn1C` [Example 84, N-(3-bromo-5-(methylsulfonamido)phenyl)-1-methyl-5-(3-methylpyridin-2-yl)-1H-pyrrole-3-carboxamide], the values for the IC50 in the experiment with LS411N cells and in the experiment on NCI-H747 cells (setting [6]) were 385 nM and above 10000 nM, respectively. The EC50 in experiment [1] came to 194 nM.
As for `CC1CN(c2ccc(-n3cc(C(=O)Nc4cc(Cl)cc(NS(C)(=O)=O)c4)cn3)nc2)CCO1` (stereo not shown) [Example 92], the values for the half-maximal inhibitory concentration (IC50) with LS411N cells (setting [4]) and with NCI-H747 cells (setting [5]) were 1100 nM and above 10000 nM, respectively. Also, in experiment [1], the 50% effective concentration (EC50) was 281 nM.
As to `Cc1cc(C(=O)Nc2cc(Cl)cc(NS(C)(=O)=O)c2)cn1-c1ccc(N2CCOCC2)cn1` [Example 93], the IC50 in the experiment on LS411N cells (setting [4]) is 253 nM; in the experiment on NCI-H747 cells (setting [5]) it was above 10000 nM. Moreover, the EC50 in experiment [1] was found to be 30 nM.
The matching figures for `Cc1cc(C(=O)Nc2cc(Cl)cc(NS(C)(=O)=O)c2)cn1-c1ccc(N2CCN(C)C(=O)C2)cn1` [Example 94]: 3200 nM, above 10000 nM and 292 nM.
`CS(=O)(=O)Nc1cc(Br)cc(NC(=O)c2cc(-c3ccccn3)n(CC#N)c2)c1` [Example 95, N-(3-bromo-5-methanesulfonamidophenyl)-1-(cyanomethyl)-5-(pyridin-2-yl)-1H-pyrrole-3-carboxamide]: the concentration for half-maximal inhibition (IC50) in the experiment with LS411N cells worked out at 1020 nM; with NCI-H747 cells (setting [6]) it was 7990 nM. In addition, the EC50 in experiment [1] worked out at 179 nM.
For `Cc1cccnc1-c1nc(C(=O)Nc2cc(Br)cc(NS(C)(=O)=O)c2)cn1C` [Example 96, N-(3-bromo-5-(methylsulfonamido)phenyl)-1-methyl-2-(3-methylpyridin-2-yl)-1H-imidazole-4-carboxamide], the IC50 in the experiment with LS411N cells (setting [4]) and in the experiment with NCI-H747 cells (setting [5]) was above 10000 nM each time. The concentration for a half-maximal effect (EC50) in experiment [1] is 9630 nM.
As to `CS(=O)(=O)Nc1cc(Cl)cc(NC(=O)c2cc(-c3ccccc3OCc3ccccc3)cs2)c1` [Example 111], the results for the concentration for half-maximal inhibition (IC50) with LS411N cells (setting [4]) and in the experiment on NCI-H747 cells (setting [5]) were 318 nM and above 10000 nM, respectively. In addition, in experiment [1], the EC50 was 161 nM.
With `CS(=O)(=O)Nc1cc(Cl)cc(NC(=O)c2cnn(-c3ncccc3OCc3cc(F)cc(F)c3)c2)c1` [Example 187], the IC50 is 77.3 nM in the experiment with LS411N cells (setting [4]) and above 10000 nM with NCI-H747 cells (setting [5]).
As to `Cc1sc(C(=O)Nc2cc(Cl)cc(NS(C)(=O)=O)c2)cc1-c1ncc(N2CC(C(F)(F)F)C2)cc1F` [Example 460, N-(3-chloro-5-(methylsulfonamido)phenyl)-4-(3-fluoro-5-(3-(trifluoromethyl)azetidin-1-yl)pyridin-2-yl)-5-methylthiophene-2-carboxamide], the half-maximal inhibitory concentration (IC50) in the experiment on NCI-H747 cells (setting [3]) is 3800 nM.
In the case of `Cc1sc(C(=O)Nc2cc(Cl)cc(NS(C)(=O)=O)c2)cc1-c1ncccc1OC(C)c1cncc(F)c1` (stereo not shown) [Example 630], in experiment [2], the EC50 was determined as 89.2 nM. Besides, the IC50 with LS411N cells (LS411N, performed at Pharmaron) amounted to 98.3 nM.

(Values after patent publication US12162867B2, “Inhibitors of RNA helicase DHX9 and uses thereof” (ACCENT THERAPEUTICS, INC., priority 2022, dated 2024).)
